Toxic doses and inconclusive results are not listed.
Tested on: L1210 leukemia ip in BDF1 mice, survival T/C
Experiment: NCI In Vivo Anticancer Drug Screen. Data for tumor model L1210 Leukemia (intraperitoneal) in B6D2F1 (BDF1) mice
Conditions: endpoint: mean survival time, higher = longer survival
Summary of the method: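 Tumor was transplanted into mice, which were then dosed with test compound or vehicle alone. Survival was recorded for each group, and the treated figure was expressed relative to the control figure.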

[1] = dose: 100.0 mg/kg/injection, schedule: Q01DX001 (ip), vehicle: Klucel (hydroxypropylcellulose) (HPC)
[2] = dose: 200.0 mg/kg/injection, schedule: Q01DX001 (ip), vehicle: Klucel (hydroxypropylcellulose) (HPC)
[3] = dose: 50.0 mg/kg/injection, schedule: Q04DX003 (ip), vehicle: Klucel (hydroxypropylcellulose) (HPC)
[4] = dose: 100.0 mg/kg/injection, schedule: Q01DX001 (ip), vehicle: saline
[5] = dose: 100.0 mg/kg/injection, schedule: Q04DX003 (ip), vehicle: Klucel (hydroxypropylcellulose) (HPC)
[6] = dose: 200.0 mg/kg/injection, schedule: Q01DX001 (ip), vehicle: saline
[7] = dose: 400.0 mg/kg/injection, schedule: Q01DX001 (ip), vehicle: Klucel (hydroxypropylcellulose) (HPC)
[8] = dose: 400.0 mg/kg/injection, schedule: Q01DX009 (ip), vehicle: saline with Tween-80
[9] = dose: 100.0 mg/kg/injection, schedule: Q01DX009 (ip), vehicle: Klucel (hydroxypropylcellulose) (HPC)
[10] = dose: 200.0 mg/kg/injection, schedule: Q01DX009 (ip), vehicle: Klucel (hydroxypropylcellulose) (HPC)
[11] = dose: 50.0 mg/kg/injection, schedule: Q01DX009 (ip), vehicle: Klucel (hydroxypropylcellulose) (HPC)
[12] = dose: 100.0 mg/kg/injection, schedule: Q01DX001 (ip), vehicle: saline with Tween-80
[13] = dose: 200.0 mg/kg/injection, schedule: Q01DX001 (ip), vehicle: saline with Tween-80
[14] = dose: 400.0 mg/kg/injection, schedule: Q01DX001 (ip), vehicle: saline with Tween-80

## CSc1ccc(NC(=O)Nc2cc(C)ccc2N=Nc2ccc(C)cc2)cc1
dose: 100.0 mg/kg/injection, schedule: Q01DX009 (ip), vehicle: other
  T/C: 89 % of control
dose: 200.0 mg/kg/injection, schedule: Q01DX009 (ip), vehicle: other
  T/C: 102 % of control
dose: 400.0 mg/kg/injection, schedule: Q01DX009 (ip), vehicle: other
  T/C: 96 % of control

## CC(=O)OC1CCC2(C)C(CCC3C2CCC2(C)C(C(C)O)CCCC32)C1 (configuration not stated)
[1]
  T/C: 88 % of control
[2]
  T/C: 98 % of control

## COc1ccc(C(O)CNC(=O)c2ccccc2)cc1 (configuration not stated)
dose: 25.0 mg/kg/injection, schedule: Q04DX003 (ip), vehicle: Klucel (hydroxypropylcellulose) (HPC)
  T/C: 102 % of control
[3]
  T/C: 97 % of control
[4]
  T/C: 96 % of control
[5]
  T/C: 87 % of control
[6]
  T/C: 104 % of control
dose: 400.0 mg/kg/injection, schedule: Q01DX001 (ip), vehicle: saline
  T/C: 98 % of control
dose: 400.0 mg/kg/injection, schedule: Q04DX003 (ip), vehicle: Klucel (hydroxypropylcellulose) (HPC)
  T/C: 109 % of control

## CC1=CC(=O)C2COc3c2c1cc1c(C)cc(=O)n(C)c31 (configuration not stated)
[3]
  T/C: 97 % of control
[1]
  T/C: 95 % of control
[5]
  T/C: 113 % of control
[2]
  T/C: 95 % of control
dose: 200.0 mg/kg/injection, schedule: Q04DX003 (ip), vehicle: Klucel (hydroxypropylcellulose) (HPC)
  T/C: 97 % of control
[7]
  T/C: 97 % of control

## NC(=O)N/N=C(/c1ccccc1)c1ccccn1
dose: 100.0 mg/kg/injection, schedule: Q01DX009 (ip), vehicle: saline with Tween-80
  T/C: 101 % of control
dose: 200.0 mg/kg/injection, schedule: Q01DX009 (ip), vehicle: saline with Tween-80
  T/C: 100 % of control
[8]
  T/C: 101 % of control

## Cc1coc2c1[C@@H](O)[C@]1(C)[C@@H](C)CC[C@H](O)[C@]1(O)C2
[4]
  T/C: 97 % of control
[6]
  T/C: 95 % of control

## CC1(C)C2CCC1(C)C2C=O (configuration not stated)
[9]
  T/C: 96 % of control
[10]
  T/C: 93 % of control
dose: 400.0 mg/kg/injection, schedule: Q01DX009 (ip), vehicle: Klucel (hydroxypropylcellulose) (HPC)
  T/C: 96 % of control

## CSc1nc(C)c(Cl)c(SC)n1
[11]
  T/C: 101 % of control
[9]
  T/C: 117 % of control
[10]
  T/C: 97 % of control

## O=NN(CCCl)C(=O)NCC1CCC(CNC(=O)N(CCCl)N=O)CC1 (configuration not stated)
dose: 6.2 mg/kg/injection, schedule: Q01DX009 (ip), vehicle: carboxymethylcellulose (CMC)
  T/C: 113 % of control
dose: 12.5 mg/kg/injection, schedule: Q01DX009 (ip), vehicle: carboxymethylcellulose (CMC)
  T/C: 111 % of control
dose: 25.0 mg/kg/injection, schedule: Q01DX009 (ip), vehicle: Klucel (hydroxypropylcellulose) (HPC)
  T/C: 101 % of control
dose: 25.0 mg/kg/injection, schedule: Q01DX009 (ip), vehicle: carboxymethylcellulose (CMC)
  T/C: 122 % of control
[11]
  T/C: 98 % of control
dose: 53.0 mg/kg/injection, schedule: Q01DX001 (ip), vehicle: carboxymethylcellulose (CMC)
  T/C: 117 % of control
dose: 80.0 mg/kg/injection, schedule: Q01DX001 (ip), vehicle: carboxymethylcellulose (CMC)
  T/C: 117 % of control
[9]
  T/C: 109 % of control
dose: 177.0 mg/kg/injection, schedule: Q01DX001 (ip), vehicle: carboxymethylcellulose (CMC)
  T/C: 150 % of control
dose: 177.0 mg/kg/injection, schedule: Q01DX009 (ip), vehicle: carboxymethylcellulose (CMC)
  T/C: 278 % of control
dose: 266.0 mg/kg/injection, schedule: Q01DX001 (ip), vehicle: carboxymethylcellulose (CMC)
  T/C: 225 % of control
dose: 266.0 mg/kg/injection, schedule: Q01DX009 (ip), vehicle: carboxymethylcellulose (CMC)
  T/C: 188 % of control
dose: 400.0 mg/kg/injection, schedule: Q01DX001 (ip), vehicle: carboxymethylcellulose (CMC)
  T/C: 275 % of control
dose: 400.0 mg/kg/injection, schedule: Q01DX009 (ip), vehicle: carboxymethylcellulose (CMC)
  T/C: 103 % of control
dose: 600.0 mg/kg/injection, schedule: Q01DX001 (ip), vehicle: carboxymethylcellulose (CMC)
  T/C: 250 % of control

## CC(=O)Nc1ccc(C(C)(C)C)cc1
[12]
  T/C: 95 % of control
[13]
  T/C: 95 % of control
[14]
  T/C: 95 % of control

## CN(C)c1ccc(C(=O)CCCN2CCC3(CC2)C(=O)NCN3c2ccccc2)cc1
[1]
  T/C: 100 % of control
[2]
  T/C: 94 % of control
[7]
  T/C: 100 % of control

## O=C(Nc1ccc(Cl)cc1)O/N=C/c1ccccn1
dose: 12.5 mg/kg/injection, schedule: Q01DX009 (ip), vehicle: saline with Tween-80
  T/C: 111 % of control
dose: 25.0 mg/kg/injection, schedule: Q01DX009 (ip), vehicle: saline with Tween-80
  T/C: 97 % of control
dose: 50.0 mg/kg/injection, schedule: Q01DX009 (ip), vehicle: saline with Tween-80
  T/C: 94 % of control
[12]
  T/C: 97 % of control
[13]
  T/C: 109 % of control
[14]
  T/C: 101 % of control
[8]
  T/C: 88 % of control

## CC(C)(C)C(=O)OCn1cnc(C#N)c1[N+](=O)[O-]
dose: 100.0 mg/kg/injection, schedule: Q01DX001 (ip), vehicle: acetone
  T/C: 92 % of control
dose: 200.0 mg/kg/injection, schedule: Q01DX001 (ip), vehicle: acetone
  T/C: 101 % of control
dose: 400.0 mg/kg/injection, schedule: Q01DX001 (ip), vehicle: acetone
  T/C: 92 % of control

## O=P(O)(O)c1cccc(Oc2ccccc2)c1
dose: 75.0 mg/kg/injection, schedule: Q01DX001 (ip), vehicle: saline
  T/C: 100 % of control
dose: 150.0 mg/kg/injection, schedule: Q01DX001 (ip), vehicle: saline
  T/C: 100 % of control

Source: PubChem BioAssay AID248 (DTP/NCI, 2004)
